Laboratory results as given in US12583869B2, “Salt form and crystal form of A2A receptor antagonist and preparation method therefor” (CSTONE PHARMACEUTICAL (SUZHOU) CO., LTD., priority 2019, dated 2026).
Like-named read-outs stand apart in the source and are kept apart here.

Columns and labels:
[1] = Stability experiments of crystal forms (60°C/75% RH, HPLC related substances); assay type: physicochemical; settings: for Stability under high temperature and high humidity conditions (in words): 60°C/75% humidity, 1 week
Method: A certain amount (approximately 10 mg) of two parts of the crystal form A of the compound of formula (I), the crystal form B of the compound of formula (II) and the crystal form C of the compound of formula (III) were weighed in parallel, and added to a 40 mL of sample bottle, which were placed in a constant temperature and humidity box at 60° C./75% humidity for 1 week. Another sample (about 10 mg) of the crystal form A of the compound of formula (I), the crystal form B of the compound of formula (II) and the crystal form C of the compound of formula (III) were placed in a refrigerator at −20° C. as control samples. At the time point of investigation, the corresponding test sample was taken out of the stability box, the aluminum foil paper was removed from the sample bottle of 60° C./75% RH, and the sample bottle was covered with a bottle cap. The 0-day samples were taken out of the refrigerator and analyzed after the samples were restored to room temperature.

[2] = Pharmacokinetic experiment in mice, single intravenous and oral administration; assay type: in vivo; settings: female, mouse, plasma; Balb/c mice, oral vs intravenous; read-out: Bioavailability F
Method: Experimental materials: Balb/c mice (female, 15-30 g, 7-9 weeks old, Shanghai Lingchang) were used.
Experimental method: The rodent pharmacokinetic characteristics of the compound after intravenous injection and oral administration were tested by a standard protocol. In the experiment, the candidate compound was formulated into a clear solution and given to mice by a single intravenous injection and a single oral administration. The solvent for intravenous injection (IV) was a mixed solvent of 5% DMSO/5% polyethylene glycol hydroxystearate/90% water, and the solvent for oral (PO) was a mixed solvents of 1% tween80, 9% PEG400, 90% H2O (pH=3). Whole blood samples within 48 hours were collected, centrifuged at 3000 g for 15 minutes at 4 degrees, separated the supernatant to obtain a plasma sample. Then 20 times the volume of acetonitrile solution containing internal standard was added to precipitate the protein, the mixture was centrifuged to take the supernatant, equal volume of water was added and centrifuge to take the supernatant again for injection. The blood drug concentration was quantitatively analyzed by LC-MS/MS analysis method, and the pharmacokinetic parameters were calculated, such as peak concentration, peak time, clearance rate, half-life, area under the drug-time curve, bioavailability, etc.

[3] = In vivo PK experiment, plasma and tumor tissue on day 20 of the efficacy experiment; design: species or system BALB/c mice; settings: BALB/c, mouse, oral; for concentration at 1 h / concentration at 4 h: tumor, read-out: Tumor drug concentration
Method: Blood was collected and tissues were collected from each group of the experiment at different time points (0 h, 0.25 h, 0.5 h, 1 h, 2 h, 4 h, 8 h and 24 h) on day 20 of the administration of experimental embodiment 3. The pharmacokinetic parameters of each experimental group were shown in Table 12, and the biological ratios of the tumor tissue drug concentration and the corresponding blood sampling point tumor tissue drug concentration and plasma drug concentration of each experimental group were shown in Table 13.

[4] = system: mouse colon cancer CT26 cells; assay: In vivo drug efficacy experiment, subcutaneous CT26 allograft tumor; design: species or system BALB/c mice; settings: CS1003 1 mg/kg intraperitoneal, day 20
Method: Experimental materials: BALB/c mice (female); mouse colon cancer CT26 cells (cell bank of the Type Culture Collection Committee of the Chinese Academy of Sciences), were cultured in a monolayer in vitro, and the culture condition was RPMI-1640 medium containing 10% fetal bovine serum, and cultured in 5% CO2 incubator at 37° C. Trypsin-EDTA was used for conventional digestion and passage. When the cells were in the exponential growth phase and the saturation was 80%-90%, the cells were collected and counted.
Compound preparation: The compound of formula (II-1) was weighed and added to a solvent (10% PEG400+90% (10% Cremophor aqueous solution)) to prepare samples of 2.5 mg/mL, 5 mg/mL, and 10 mg/mL, respectively. […]
Experimental operation: The cells in Dulbecco's phosphate buffer were resuspended at a density of 3×10^6 cells/mL. […] During the entire experiment, the animals were weighed and monitored daily. […] The tumor diameter was measured with vernier calipers twice a week. […]
The anti-tumor efficacy of the compound was evaluated by GI (%) or relative tumor proliferation rate T/C (%). […]
The statistical analysis was based on the relative tumor volume and tumor weight at the end of the experiment using SPSS software. The comparison between the two groups was analyzed by t-test, and the comparison between three or more groups was analyzed by one-way ANOVA. […]

Row | Impurity at relative retention time 0.36 ([1]; 0 day (control sample, -20°C)) | Impurity at relative retention time 0.45 ([1]; 0 day (control sample, -20°C)) | Impurity at relative retention time 0.49 ([1]; 0 day (control sample, -20°C)) | Impurity at relative retention time 0.67 ([1]; 0 day (control sample, -20°C)) | Impurity at relative retention time 0.70 ([1]; 0 day (control sample, -20°C)) | Impurity at relative retention time 1.18 ([1]; 0 day (control sample, -20°C)) | Total impurities % ([1]; 0 day (control sample, -20°C)) | Impurity at relative retention time 0.36 ([1]; 60 C./75% RH, one week) | Impurity at relative retention time 0.45 ([1]; 60 C./75% RH, one week) | Impurity at relative retention time 0.49 ([1]; 60 C./75% RH, one week) | Impurity at relative retention time 0.67 ([1]; 60 C./75% RH, one week) | Impurity at relative retention time 0.70 ([1]; 60 C./75% RH, one week) | Impurity at relative retention time 1.18 ([1]; 60 C./75% RH, one week) | Total impurities % ([1]; 60 C./75% RH, one week) | Stability under high temperature and high humidity conditions (in words) [1] | Molecule | other results
1 | 0.09 | 0.10 | 0.09 | 0.05 | 0.15 | 0.40 | 0.87% | 0.09 | 0.10 | 0.09 | 0.05 | 0.15 | 0.40 | 0.87% | good stability | Nc1nc(-c2ccc(F)cc2)c(-c2ccc3ncnn3c2)c2nccnc12 [Crystal form B of the compound of formula (II)] | –
2 | 0.05 | 0.09 | 0.08 | 0.04 | 0.09 | 0.50 | 0.96% | 0.05 | 0.09 | 0.08 | 0.04 | 0.09 | 0.52 | 1.16% | good stability | Nc1nc(-c2ccc(F)cc2)c(-c2ccc3ncnn3c2)c2nccnc12 [Crystal form C of the compound of formula (III)] | –

Continued, molecule first:

Row | Molecule | Impurity at relative retention time 0.36 ([1]; 0 day (control sample, -20°C)) | Impurity at relative retention time 0.45 ([1]; 0 day (control sample, -20°C)) | Impurity at relative retention time 0.49 ([1]; 0 day (control sample, -20°C)) | Impurity at relative retention time 0.67 ([1]; 0 day (control sample, -20°C)) | Impurity at relative retention time 0.70 ([1]; 0 day (control sample, -20°C)) | Impurity at relative retention time 1.18 ([1]; 0 day (control sample, -20°C)) | Total impurities % ([1]; 0 day (control sample, -20°C)) | Impurity at relative retention time 0.36 ([1]; 60 C./75% RH, one week) | Impurity at relative retention time 0.45 ([1]; 60 C./75% RH, one week) | Impurity at relative retention time 0.49 ([1]; 60 C./75% RH, one week) | Impurity at relative retention time 0.67 ([1]; 60 C./75% RH, one week) | Impurity at relative retention time 0.70 ([1]; 60 C./75% RH, one week) | Impurity at relative retention time 1.18 ([1]; 60 C./75% RH, one week) | Total impurities % ([1]; 60 C./75% RH, one week) | Stability under high temperature and high humidity conditions (in words) [1] | other results
3 | Nc1nc(-c2ccc(F)cc2)c(-c2ccc3ncnn3c2)c2nccnc12.O=C(O)/C=C\C(=O)O | 0.06 | 0.09 | 0.09 | 0.05 | 0.11 | 0.29 | 0.69% | 0.05 | 0.09 | 0.09 | 0.05 | 0.12 | 0.29 | 0.69% | good stability | –
4 | Nc1nc(-c2ccc(F)cc2)c(-c2ccc3ncnn3c2)c2nccnc12 [Compound of formula (II-1)] | – | – | – | – | – | – | – | – | – | – | – | – | – | – | – | bioavailability [2]: 30.4%; concentration at 1 h ([3]; 25 mpk, Group 4, 25 mpk + CS1003, time point 1 h): 3.48 µM; concentration at 4 h ([3]; 25 mpk, Group 4, 25 mpk + CS1003, time point 4 h): 925 nM; concentration at 1 h ([3]; 50 mpk, Group 5, 50 mpk once a day + CS1003, time point 1 h): 9.96 µM; concentration at 4 h ([3]; 50 mpk, Group 5, 50 mpk once a day + CS1003, time point 4 h): 1660 nM; concentration at 4 h ([3]; 50 mpk, Group 8, 50 mpk twice a day + CS1003, time point 4 h): 3020 nM; concentration at 1 h ([3]; 100 mpk, Group 6, 100 mpk + CS1003, time point 1 h): 18.7 µM; concentration at 4 h ([3]; 100 mpk, Group 6, 100 mpk + CS1003, time point 4 h): 3030 nM; Kp at 1 h ([3]; tumor/plasma, Group 4, 25 mpk + CS1003, time point 1 h, read-out: T/P Ratio (compound exposure in tumor tissue and plasma)): 0.7
5 | CS1003: full-length, fully humanized immunoglobulin G4 (IgG4) monoclonal antibody against PD-1 (antibody, chains of the INN, looked up, V domains shown) VH: QVQLVQSGAEVKKPGSSVKVSCKASGFTFTTYYISWVRQAPGQGLEYLGYINMGSGGTNYNEKFKGRVTITADKSTSTAYMELSSLRSEDTAVYYCAIIGYFDYWGQGTMVTVSS VL: DVVMTQSPLSLPVTLGQPASISCRSSQSLLDSDGGTYLYWFQQRPGQSPRRLIYLVSTLGSGVPDRFSGSGSGTDFTLKISRVEAEDVGVYYCMQLTHWPYTFGQGTKLEIK | – | – | – | – | – | – | – | – | – | – | – | – | – | – | – | Tumor volume [4]: 487.34±109.07 mm^3; Tumor inhibition rate GI ([4]; no significant difference with solvent control): 42.47%
